Test system: PBMC
Assay: GSH/GSSG ratio by LC-MS/MS in treated PBMC samples
Assay type: cell-based, human
Settings: 4 PBMC samples, 12 hours
Method: The levels of glutathione (GSH, reduced form) and glutathione disulfide (GSSG, oxidized form) in the whole blood of each subject were determined using a liquid chromatography-tandem mass spectrometry (LC-MS/MS)-based procedure modified from that of Norris et al. (J Chromatogr B Biomed Sci Appl. 2001; 762 (I):17-23) In brief, whole blood was mixed in a 1:4 (v:v) ratio with solution containing n-ethylmaleimide (NEM), sulfosalicylic acid, EDTA and methanol. Supernatants were diluted with stable-isotope internal standards (GSH-^13C, ^15N-NEM and GSSG-^13C, ^15N) and analyzed by LC-MS/MS, using an API 3000 Tandem Mass Spectrometer with Turbulon Ion Spray source, Shimadzu solvent delivery system and LEAP Technology autosampler. GSH (as GSH-NEM) and GSSG were monitored by transitions m/z 433→304 and m/z […] respectively, and data was acquired using Analyst 1.4.
Significance analysis of microarrays (SAM) was conducted for analysis of microarray data to identify differentially expressed genes. The Mann-Whitney test was used in the analysis of real-time PCR validation data. Unpaired t-test was conducted for the comparison of glutathione levels in ITP patients and controls. Paired t-test was carried out for the analysis of differences in GSH/GSSG ratios in cells with or without LPS or sodium arsenite treatments. […]

Compound	GSH/GSSG ratio compared with untreated cells (LPS 10 ng/ml, p=0.04)	GSH/GSSG ratio compared with untreated cells (sodium arsenite 5 μM, p=0.01)
Lipopolysaccharide [LPS]	statistically significant decrease	–
O=[As]O [sodium arsenite]	–	statistically significant decrease

From patent publication US20120142550A1, “Vanin 1 as a Peripheral Blood Oxidative Stress Sensor” (priority 2010, published 2012)
